The text below walks through data of patent US20160175306A1, “COMBINATION OF A IMIDAZOPYRIDAZINE DERIVATIVE AND A MITOTIC AGENT FOR THE TREATMENT OF CANCER” (BAYER PHARMA AKTIENGESELLSCHAFT, priority 2013, published 2016).

Values joined by “and” are separate entries in the source; they are usually repeats but may differ in a detail not shown here. Equal values may be shown once. Read-outs that look alike come from different tables or passages of the source. Marks after values point to notes of the source that are not given here.

One data set concerns the target T1, human CYP3A4 (Homo sapiens, UniProt P08684).
T1 construct: Human liver microsomal preparation (pool of HLM) was applied for the assay; from tissue; host or cells: pooled human liver microsomes
Nature of the data set: Determination of inhibitory potential on human CYP3A4. Format: in vitro ADME. The settings on record: human liver microsomes, midazolam substrate; read-out: inhibition of liver enzyme CYP3A4. As to the method: Determination of Inhibitory Potential on Human CYP3A4
The potential of the test compound to act as a competitive inhibitor of CYP3A4 was evaluated in in vitro assays, using human liver microsomes and the reference substrate midazolam. The test compound was solved in acetonitrile. Human liver microsomal preparation (pool of HLM) was applied for the assay.
A stock solution of the test compound was added to phosphate buffer containing EDTA, NADP, glucose 6-phosphate, and glucose 6-phosphate dehydrogenase. This mixture was sequentially diluted on a Genesis Workstation (Tecan, Crailsheim, FRG). After pre-warming, reaction was initiated by addition of a mixture of probe substrate (midazolam). […] The reference samples (substrate, but no inhibitor) were incubated in parallel in sextuple and contained the same amount of solvent as the test incubations. Reactions were stopped by addition of 100 μL acetonitrile containing the internal standard. Precipitated proteins were removed by centrifugation of the well plate, supernatants were analyzed by LC-MS/MS.
The CYP3A4-mediated metabolic activity in the presence of the test compounds was expressed as percentages of the corresponding reference value. […]
(In general: Liver microsomes are a subcellular fraction often used to study metabolism.)

Data set [1] concerns HeLa human cervical tumour cells. As to the kind of experiment: Proliferation Assay with HeLa cells. Format: cell-based. The following applies: 96 h, 4 days, crystal violet. As to the method: After 24 hours, the cells of one plate (zero-point plate) were stained with crystal violet (see below), while the medium of the other plates was replaced by fresh culture medium (200 μl), to which the test substances were added in various concentrations (0 μM, as well as in the range of 0.01-30 μM; the final concentration of the solvent dimethyl sulfoxide was 0.5%). The cells were incubated for 4 days in the presence of test substances. […] After three washing cycles of the fixed cells with water, the plates were dried at room temperature. The cells were stained by adding 100 μl/measuring point of a 0.1% crystal violet solution (pH 3.0). After three washing cycles of the stained cells with water, the plates were dried at room temperature. The dye was dissolved by adding 100 μl/measuring point of a 10% acetic acid solution. […] The change of cell number, in percent, was calculated by normalization of the measured values to the extinction values of the zero-point plate (=0%) and the extinction of the untreated (0 μm) cells (=100%). The IC50 values were determined by means of a 4 parameter fit using the company's own software.

Data set [2] has as its system spindle assembly checkpoint in HeLa cells (phosphorylated histone H3 on serine 10). Nature of the data set: Spindle Assembly Checkpoint Assay. The class given is cell-based. The following applies: Homo sapiens, nocodazole 0.1 μg/ml, 4 h with compound. The source says: The spindle assembly checkpoint assures the proper segregation of chromosomes during mitosis. Upon entry into mitosis, chromosomes begin to condensate which is accompanied by the phosphorylation of histone H3 on serine 10. Dephosphorylation of histone H3 on serine 10 begins in anaphase and ends at early telophase. Accordingly, phosphorylation of histone H3 on serine 10 can be utilized as a marker of cells in mitosis. Nocodazole is a microtubule destabilizing substance. Thus, nocodazole interferes with microtubule dynamics and mobilises the spindle assembly checkpoint. […] An inhibition of the spindle assembly checkpoint by Mps-1 inhibitors overrides the mitotic blockage in the presence of nocodazole, and the cells complete mitosis prematurely. This alteration is detected by the decrease of cells with phosphorylation of histone H3 on serine 10. This decline is used as a marker to determine the capability of compounds of the present invention to induce a mitotic breakthrough.
Cultivated cells of the human cervical tumour cell line HeLa (ATCC CCL-2) were plated at a density of 2500 cells/well in a 384-well microtiter plate in 20 μl Dulbeco's Medium (w/o phenol red, w/o sodium pyruvate, w […] glucose, w pyridoxine) supplemented with 1% (v/v) glutamine, 1% (v/v) penicillin, 1% (v/v) streptomycin and 10% (v/v) fetal calf serum. After incubation overnight at 37° C., 10 μl/well nocodazole at a final concentration of 0.1 μg/ml were added to cells. After 24 h incubation, cells were arrested at G2/M phase of the cell cycle progression. […] Images were acquired with a Perkin Elmer OPERA™ High-Content Analysis reader. Images were analyzed with image analysis software MetaXpress™ from Molecular devices utilizing the Cell Cycle application module. In this assay both labels HOECHST 33342 and phosphorylated Histone H3 on serine 10 were measured. […] The raw assay data were further analysed by four parameter logistic regression analysis to determine the IC50 value for each tested compound.

Data set [3] concerns A2780cis human ovarian cancer xenograft model. The settings on record: for T/C weight: mean final tumor weight. As for the experimental part: In Vivo Anti-Tumor Efficacy of Mps-1 Kinase Inhibitors of the Present Invention in Combination with Paclitaxel in A2780cis Human Ovarian Cancer Model in Nude Mice
The effect of combination treatment of an Mps-1 kinase inhibitor of the present invention and paclitaxel was studied in the adaptive cisplatin-resistant and paclitaxel intrinsically resistant A2780cis xenograft model. […] Animal body weight and tumor size were determined three times weekly. Treatment for all groups started at a tumor size of 29 mm^2, at day 6 after tumor cell inoculation. […] At the end of the study after one final treatment plasma and tumors were sampled for PK analysis and final tumor weight was determined.

Data set [4] relates to NCI-H1299 human NSCLC xenograft model. The settings on record: for T/C weight: mean final tumor weight. The source says:
In Vivo Anti-Tumor Efficacy of Mps-1 Kinase Inhibitors of the Present Invention in Combination with Paclitaxel in NCI-H1299 Human NSCLC Model in Nude Mice
The effect of combination treatment of an Mps-1 kinase inhibitor of the present invention and paclitaxel was studied in the NCI-H1299 taxane intrinsically resistant human lung carcinoma (NSCLC) xenograft model in nude mice. […] Substances were formulated in optimal vehicles to achieve solutions. Animal body weight and tumor size were determined three times weekly. Treatment for all groups started at a tumor size of 30 mm^2, at day 8 after tumor cell inoculation. […] At the end of the study after one final treatment plasma and tumors were sampled for PK analysis and final tumor weight was determined.

Where [5] appears, read: Compound A27 2 mg/kg 2QD 2on/5off p.o.
Setting [6] is: Compound A27 3 mg/kg 2QD 2on/5off p.o.
[7] abbreviates: Paclitaxel 20/15 (d19) mg/kg QD 2on/6off i.v.
The mark [8] stands for this setting: Paclitaxel 20/15 (d19) mg/kg QD 2on/6off i.v., relative tumor area at control dosing stop.

T1 sequence (P08684 whole entry): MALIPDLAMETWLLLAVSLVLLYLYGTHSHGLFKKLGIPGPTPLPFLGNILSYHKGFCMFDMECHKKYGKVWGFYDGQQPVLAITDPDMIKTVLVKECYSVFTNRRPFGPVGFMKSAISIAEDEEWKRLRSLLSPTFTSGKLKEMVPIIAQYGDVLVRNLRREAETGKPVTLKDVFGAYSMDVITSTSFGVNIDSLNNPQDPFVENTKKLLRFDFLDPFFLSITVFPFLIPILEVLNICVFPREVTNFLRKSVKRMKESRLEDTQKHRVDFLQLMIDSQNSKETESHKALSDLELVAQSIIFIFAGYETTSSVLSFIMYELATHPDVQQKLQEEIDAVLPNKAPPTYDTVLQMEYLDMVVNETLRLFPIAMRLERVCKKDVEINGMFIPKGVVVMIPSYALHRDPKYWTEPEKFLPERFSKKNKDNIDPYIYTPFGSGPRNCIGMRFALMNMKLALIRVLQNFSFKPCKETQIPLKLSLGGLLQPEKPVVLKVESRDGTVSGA

On to `COc1ccc(Oc2cc(NCC3COC3)c3ncc(-c4ccc(C(=O)NC5CC5)c(C)c4)n3n2)cc1F` [Compound A26, N-cyclopropyl-4-{6-(3-fluoro-4-methoxyphenoxy)-8-[(oxetan-3-ylmethyl)amino]imidazo[1,2-b]pyridazin-3-yl}-2-methylbenzamide], for which the IC50 on human CYP3A4 was not below 5 µM; in data set [1], less than 25 nM; in data set [2], less than 1 nM.

For the compound `COc1ccc(Oc2cc(NCCC(F)(F)F)c3ncc(-c4ccc(C(=O)NC5CC5)c(C)c4)n3n2)c(F)c1F` [Compound A27, N-cyclopropyl-4-{6-(2,3-difluoro-4-methoxyphenoxy)-8-[(3,3,3-trifluoropropyl)amino]imidazo[1,2-b]pyridazin-3-yl}-2-methylbenzamide], the “Fatal Tox” value in data set [3] (setting [5]), in data set [3] (setting [6]), in data set [4] (setting [5]) and in data set [4] (setting [6]) was 0/10 in each case. In addition, the T/C weight in data set [3] (setting [5]) came out at 0.98; in data set [3] (setting [6]) it was 0.88; in data set [4] (setting [5]) it was 1.18; in data set [4] (setting [6]), 0.74. In addition, the T/C area is 1.00 in data set [3] (Compound A27 2 mg/kg 2QD 2on/5off p.o., relative tumor area at control dosing stop (15 treatment days)); 0.90 in data set [3] (Compound A27 3 mg/kg 2QD 2on/5off p.o., relative tumor area at control dosing stop (15 treatment days)); 0.99 and 0.98 in data set [4] (Compound A27 2 mg/kg 2QD 2on/5off p.o., relative tumor area at control dosing stop (22 treatment days)); 0.64 in data set [4] (Compound A27 3 mg/kg 2QD 2on/5off p.o., relative tumor area at control dosing stop (22 treatment days)). The IC50 in data set [2] is less than 1 nM.

For `COc1ccc(Oc2cc(NCC3CCOCC3)c3ncc(-c4ccc(C(=O)NC5CC5)c(C)c4)n3n2)c(F)c1F` [Compound A28, N-cyclopropyl-4-{6-(2,3-difluoro-4-methoxyphenoxy)-8-[(tetrahydro-2H-pyran-4-ylmethyl)amino]imidazo[1,2-b]pyridazin-3-yl}-2-methylbenzamide], the IC50 on human CYP3A4 was not below 5 µM; in data set [1] it was less than 25 nM; in data set [2], less than 1 nM.

Take `CC(=O)O[C@H]1C(=O)[C@@]2(C)[C@H]([C@H](OC(=O)c3ccccc3)[C@]3(O)C[C@H](OC(=O)[C@H](O)[C@@H](NC(=O)c4ccccc4)c4ccccc4)C(C)=C1C3(C)C)[C@]1(OC(C)=O)CO[C@@H]1C[C@@H]2O` [Paclitaxel, (2α,4α,5β,7β,10β,13α)-4,10-bis(acetyloxy)-13-{[(2R,3S)-3-(benzoylamino)-2-hydroxy-3-phenylpropanoyl]oxy}-1,7-dihydroxy-9-oxo-5,20-epoxytax-11-en-2-yl benzoate, reference compound]: the “Fatal Tox” value in data set [3] (setting [7]) and in data set [4] (setting [7]) was 0/10 throughout. Besides, the T/C area in data set [3] (setting [8]) is recorded as 0.06^#; in data set [4] (setting [8]) it was 0.13^#; in data set [4] (Paclitaxel 20/15 (d19) mg/kg QD 2on/6off i.v., relative tumor area at control dosing stop, listed as paclitaxel) it was 0.13. In addition, the “Max. Body weight loss” value is listed as −0.7% in data set [3] (mouse, in vivo, iv) and −1.9% in data set [4] (mouse, in vivo, iv).
